Assay results reported in patent US6677368B2, “4-aryl substituted indolinones” (Sugen, Inc., priority 2000, dated 2004).

Key:
Assay type in all cases: biochemical
FGFR1 = FGFR1 (Homo sapiens, UniProt P11362); assay: FGFR1 bioassay (ELISA, in vitro kinase activity); conditions: purified GST-FGFR1, poly(Glu-Tyr) substrate
Description: This assay is used to measure the in vitro kinase activity of FGF1-R in an ELISA assay.
1. Costar 96-well ELISA plates (Corning Catalog #3369).
2. Poly(Glu-Tyr) (Sigma Catalog #P0275).
4. 50 mM Hepes Buffer Solution.
5. Blocking Buffer (5% BSA/PBS).
6. Purified GST-FGFR1 (SUGEN, Inc.)
7. Kinase Dilution Buffer. Mix 500 μl 1M Hepes (GIBCO), 20 μl 5% BSA/PBS, 10 μl 100 mM sodium orthovanadate and 50 μl 5M NaCl.
9. ATP/MnCl2 phosphorylation mix: mix 20 μL ATP, 400 μL 1M MnCl2 and 9.56 ml dH2O.
10. NUNC 96-well V bottom polypropylene plates (Applied Scientific Catalog #AS-72092).
12. 0.05% TBST Add 500 μL TWEEN to 1 liter TBS.
13. Rabbit polyclonal anti-phosphotyrosine serum (SUGEN, Inc.).
14. Goat anti-rabbit IgG peroxidase conjugate (Biosource, Catalog #ALI0404).
1. Coat Costar 96 well ELISA plates with 1 μg per well Poly(Glu-Tyr) in 100 μl PBS. Store overnight at 4° C.
2. Wash coated plates once with PBS.
3. Add 150 μL of 5%BSA/PBS Blocking Buffer to each well. Incubate, with shaking, for 1 hr at room temperature.
4. Wash plate 2× with PBS, then once with 50 mM Hepes. Pat plates on a paper towel to remove excess liquid and bubbles.
5. Add 25 μL of 0.4 mM test compound in 4% DMSO or 4% DMSO alone (controls) to plate.
6. Dilute purified GST-FGFR1 in Kinase Dilution Buffer (5 ng kinase/50 μl KDB/well).
7. Add 50 μL of diluted kinase to each well.
8. Start kinase reaction by adding 25 μl/well of freshly prepared ATP/Mn++ (0.4 ml 1M MnCl2, 40 μL 10 mM ATP, 9.56 ml dH2O), freshly prepared).
9. Stop reaction with 25 μL of 0.5M EDTA.
10. Wash plate 4× with fresh TBST.
11. Make up Antibody Dilution Buffer: For 50 ml, mix 5 ml of 5% BSA, 250 μl of 5% milk and 50 μl of 100 mM sodium vanadate, bring to final volume with 0.05% TBST.
12. Add 100 μl per well of anti-phosphotyrosine (1:10000 dilution in ADB). Incubate, with shaking for 1 hr. at room temperature.
14. Add 100 μl per well of Biosource Goat anti-rabbit IgG peroxidase conjugate (1:6000 dilution in ADB). Incubate, with shaking for 1 hr. at room temperature.
15. Wash as in step 10 and then with PBS to remove bubbles and excess TWEEN.
16. Add 100 μl of ABTS/H2O2 solution to each well.
17. Incubate, with shaking, for 10 to 20 minutes. Remove any bubbles.
18. Read assay on Dynatech MR7000 ELISA reader: test filter at 410 nM, reference filter at 630 nM.

EGFR = EGFR (Homo sapiens, UniProt P00533); assay: EGFR kinase inhibition
EGFR, sequence (P00533 25-1210, species assumed): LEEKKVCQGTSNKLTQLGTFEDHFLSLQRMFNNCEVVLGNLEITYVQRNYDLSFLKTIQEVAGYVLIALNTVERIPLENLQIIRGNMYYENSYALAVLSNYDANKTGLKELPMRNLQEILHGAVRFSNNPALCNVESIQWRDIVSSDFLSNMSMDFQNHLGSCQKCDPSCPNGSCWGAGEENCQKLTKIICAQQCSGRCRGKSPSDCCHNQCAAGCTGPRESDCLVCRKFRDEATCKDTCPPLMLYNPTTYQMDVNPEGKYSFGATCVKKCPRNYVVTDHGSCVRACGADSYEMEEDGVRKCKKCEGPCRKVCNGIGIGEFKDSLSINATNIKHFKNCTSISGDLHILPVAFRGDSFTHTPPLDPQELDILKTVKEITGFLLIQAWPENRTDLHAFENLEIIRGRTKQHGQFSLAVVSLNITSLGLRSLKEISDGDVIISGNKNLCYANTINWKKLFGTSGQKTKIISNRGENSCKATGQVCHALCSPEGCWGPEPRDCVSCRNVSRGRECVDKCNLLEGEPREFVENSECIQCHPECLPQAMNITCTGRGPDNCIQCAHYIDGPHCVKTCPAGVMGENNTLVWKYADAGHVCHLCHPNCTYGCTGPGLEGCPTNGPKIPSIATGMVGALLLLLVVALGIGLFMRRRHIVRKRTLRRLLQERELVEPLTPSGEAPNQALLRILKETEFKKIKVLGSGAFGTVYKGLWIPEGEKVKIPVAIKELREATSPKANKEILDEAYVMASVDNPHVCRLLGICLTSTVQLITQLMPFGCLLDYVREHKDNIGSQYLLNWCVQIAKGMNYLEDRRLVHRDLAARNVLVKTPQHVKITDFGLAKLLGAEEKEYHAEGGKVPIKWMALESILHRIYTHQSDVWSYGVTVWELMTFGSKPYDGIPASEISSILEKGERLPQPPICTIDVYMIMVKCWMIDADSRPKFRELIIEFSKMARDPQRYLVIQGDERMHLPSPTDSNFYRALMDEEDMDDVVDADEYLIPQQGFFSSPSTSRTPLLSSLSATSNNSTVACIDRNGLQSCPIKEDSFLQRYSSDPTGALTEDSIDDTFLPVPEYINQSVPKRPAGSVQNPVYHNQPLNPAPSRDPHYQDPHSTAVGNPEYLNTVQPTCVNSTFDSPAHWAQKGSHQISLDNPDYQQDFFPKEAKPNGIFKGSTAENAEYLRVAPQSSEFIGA

PDGFR = biological target: T1, PDGFR (UniProt P09619); assay: PDGFR bioassay (ELISA, in vitro kinase activity); conditions: PDGFR-β expressing NIH 3T3 cell lysate, 20 μM ATP
T1 construct: PDGFR-β expressing NIH 3T3 cell lysate (SUGEN, Inc.)
Description: This assay is used to the in vitro kinase activity of PDGFR in an ELISA assay.
1. Corning 96-well ELISA plates
2. 28D4C10 monoclonal anti-PDGFR antibody (SUGEN, Inc.).
5. Blocking Buffer (same as for EGFR bioassay).
6. PDGFR-β expressing NIH 3T3 cell lysate (SUGEN, Inc.).
11. Kinase buffer phosphorylation mix: for 10 ml, mix 250 μl 1M TRIS, 200 μl 5M NaCl, 100 μl 1M MnCl2 and 501l 100 mM Triton X-100 in enough dH2O to make 10 ml.
12. NUNC 96-well V bottom polypropylene plates.
14. Rabbit polyclonal anti-phosphotyrosine serum (SUGEN, Inc.).
15. Goat anti-rabbit IgG peroxidase conjugate (Biosource Cat. No. ALI0404).
17. Hydrogen peroxide, 30% solution.
1. Coat Corning 96 well ELISA plates with […] 28D4C 10 in 100 μl PBS per well, hold overnight at 4° C.
2. Remove unbound 28D4C10 from wells by inverting plate to remove liquid. Wash 1× with dH2O. Pat the plate on a paper towel to remove excess liquid.
3. Add 150 μl of Blocking Buffer to each well. Incubate for 30 min. at room temperature with shaking.
4. Wash plate 3× with deionized water, then once with TBST. Pat plate on a paper towel to remove excess liquid and bubbles.
5. Dilute lysate in HNTG (10 μg lysate/100 μl HNTG).
6. Add 100 μl of diluted lysate to each well. Shake at room temperature for 60 min.
7. Wash plates as described in Step 4.
8. Add 80 μl working kinase buffer mix to ELISA plate containing captured PDGFR.
9. Dilute test compound 1:10 in TBS in 96-well polypropylene plates.
10. Add 10 μl diluted test compound to -ELISA plate. To control wells, add 10 μl TBS+10% DMSO. Incubate with shaking for 30 minutes at room temperature.
11. Add 10 μl ATP directly to all wells except negative control well (final well volume should be approximately 100 μl with 20 μM ATP in each well.) Incubate 30 minutes with shaking.
12. Stop reaction by adding 10 μl of EDTA solution to each well.
13. Wash 4× with deionized water, twice with TBST.
14. Add 100 μl anti-phosphotyrosine (1:3000 dilution in TBST) per well.
Incubate with shaking for 30-45 min. at room temperature.
16. Add 100 μl Biosource Goat anti-rabbit IgG peroxidase conjugate (1:2000 dilution in TBST) to each well. Incubate with shaking for 30 min. at room temperature.
18. Add 100 μl of ABTS/H2O2 solution to each well.
19. Incubate 10 to 30 minutes with shaking. Remove any bubbles.
20. If necessary stop reaction with the addition of 100 μl 0.2 M HCl per well.
21. Read assay on Dynatech MR7000 ELISA reader with test filter at 410 nM and reference filter at 630 nM.

FGFR3 = FGFR3 (Homo sapiens, UniProt P22607); assay: FGFR3 kinase inhibition
FGFR3, sequence (P22607 23-806, species assumed): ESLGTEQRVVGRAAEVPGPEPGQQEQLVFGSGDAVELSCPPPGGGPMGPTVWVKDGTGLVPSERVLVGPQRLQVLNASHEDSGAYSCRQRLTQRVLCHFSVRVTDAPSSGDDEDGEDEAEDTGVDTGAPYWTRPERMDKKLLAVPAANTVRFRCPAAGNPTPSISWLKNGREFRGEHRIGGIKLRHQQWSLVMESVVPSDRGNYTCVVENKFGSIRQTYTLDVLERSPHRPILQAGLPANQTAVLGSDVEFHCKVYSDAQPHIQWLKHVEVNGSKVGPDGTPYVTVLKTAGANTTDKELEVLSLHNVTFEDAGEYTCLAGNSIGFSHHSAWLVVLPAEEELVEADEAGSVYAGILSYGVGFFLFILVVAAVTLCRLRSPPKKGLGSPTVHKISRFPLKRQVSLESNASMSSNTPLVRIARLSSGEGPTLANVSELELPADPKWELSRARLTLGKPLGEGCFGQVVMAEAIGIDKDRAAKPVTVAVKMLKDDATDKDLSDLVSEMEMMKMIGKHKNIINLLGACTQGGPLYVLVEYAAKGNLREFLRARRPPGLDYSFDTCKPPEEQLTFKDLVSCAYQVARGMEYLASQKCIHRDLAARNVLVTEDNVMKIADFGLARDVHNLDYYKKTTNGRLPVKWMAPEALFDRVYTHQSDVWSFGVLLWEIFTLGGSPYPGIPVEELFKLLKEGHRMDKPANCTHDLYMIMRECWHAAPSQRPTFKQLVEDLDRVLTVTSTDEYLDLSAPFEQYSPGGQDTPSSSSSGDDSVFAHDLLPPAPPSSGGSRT

FGFR1, sequence (P11362 22-822, species assumed): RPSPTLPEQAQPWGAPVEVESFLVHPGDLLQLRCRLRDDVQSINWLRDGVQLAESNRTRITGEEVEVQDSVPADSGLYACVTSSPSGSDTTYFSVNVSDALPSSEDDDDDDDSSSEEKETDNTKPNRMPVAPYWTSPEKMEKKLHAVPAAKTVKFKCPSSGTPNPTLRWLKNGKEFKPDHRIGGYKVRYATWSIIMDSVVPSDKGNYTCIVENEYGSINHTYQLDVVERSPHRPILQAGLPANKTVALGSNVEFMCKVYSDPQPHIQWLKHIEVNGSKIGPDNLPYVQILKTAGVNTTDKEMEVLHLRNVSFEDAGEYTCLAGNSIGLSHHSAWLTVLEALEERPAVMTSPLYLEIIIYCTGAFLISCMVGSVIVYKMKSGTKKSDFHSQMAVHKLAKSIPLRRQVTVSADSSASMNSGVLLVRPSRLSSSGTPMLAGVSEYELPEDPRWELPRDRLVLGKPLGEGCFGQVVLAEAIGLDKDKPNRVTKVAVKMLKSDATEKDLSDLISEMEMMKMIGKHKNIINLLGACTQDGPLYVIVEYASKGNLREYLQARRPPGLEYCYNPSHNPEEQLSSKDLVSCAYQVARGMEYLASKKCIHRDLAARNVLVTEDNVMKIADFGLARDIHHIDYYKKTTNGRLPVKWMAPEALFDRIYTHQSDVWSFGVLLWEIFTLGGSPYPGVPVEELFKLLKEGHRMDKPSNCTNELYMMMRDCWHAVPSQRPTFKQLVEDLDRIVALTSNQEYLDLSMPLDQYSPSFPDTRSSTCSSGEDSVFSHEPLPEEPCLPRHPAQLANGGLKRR

`CCOC(=O)c1c(C)[nH]c(/C=C2\C(=O)Nc3cccc(-c4cccc(F)c4)c32)c1CCCN1CCN(C)CC1` [Example 18, 5-[4-(3-Fluoro-phenyl)-2-oxo-1,2-dihydro-indol-3-ylidenemethyl]-2-methyl-4-[3-(4-methyl-piperazin-1-yl)-propyl]-1H-pyrrole-3-carboxylic Acid Ethyl Ester] was tested, and the IC50 (FGFR1) was 1190 nM, the IC50 (EGFR) was 9.33 µM and the IC50 (PDGFR) was 10400 nM. The IC50 (FGFR3) was 350 nM.
`Cc1[nH]c(/C=C2\C(=O)Nc3cccc(-c4ccc(Cl)cc4)c32)c(C)c1C(=O)NCCN1CCCC1` [Example 22, 5-[4-(4-Chloro-phenyl)-2-oxo-1,2-dihydro-indol-3-ylidenemethyl]-2,4-dimethyl-1H-pyrrole-3-carboxylic Acid (2-Pyrrolidin-1-yl-ethyl)-amide] showed an IC50 (FGFR1) of 57 nM, an IC50 (EGFR) of 15.9 µM and an IC50 (PDGFR) of 1640 nM. It also gave an IC50 (FGFR3) of 74 nM.
In the case of `CCN(CC)CCNC(=O)c1c(C)[nH]c(/C=C2\C(=O)Nc3cccc(-c4cccc(Cl)c4)c32)c1C` [Example 29, 5-[4-(3-Chloro-phenyl)-2-oxo-1,2-dihydro-indol-3-ylidenemethyl]-2,4-dimethyl-1H-pyrrole-3-carboxylic Acid (2-Diethylamino-ethyl)-amide], the IC50 (FGFR1) is reported as 29 nM, the IC50 (EGFR) is reported as 12.9 µM and the IC50 (PDGFR) is reported as 690 nM. It also gave an IC50 (FGFR3) of 320 nM.
`COc1ccc(-c2cccc3c2/C(=C/c2[nH]c(C)c(C(=O)NCCN4CCCC4)c2C)C(=O)N3)cc1` [Example 38, 5-[4-(4-Methoxy-phenyl)-2-oxo-1,2-dihydro-indol-3-ylidenemethyl]-2,4-dimethyl-1H-pyrrole-3-carboxylic Acid (2-Pyrrolidin-1-yl-ethyl)-amide] showed an IC50 (FGFR1) of 80 nM, an IC50 (EGFR) of 16.4 µM and an IC50 (PDGFR) of 2190 nM. For the same compound, the IC50 (FGFR3) was 46 nM.
For `Cc1[nH]c(/C=C2\C(=O)Nc3cccc(-c4ccc(Br)cc4)c32)c(C)c1C(=O)NCCN(C(C)C)C(C)C` [Example 60, 5-[4-(4-Bromo-phenyl)-2-oxo-1,2-dihydro-indol-3-ylidenemethyl]-2,4-dimethyl-1H-pyrrole-3-carboxylic Acid (2-Diisopropylamino-ethyl)-amide], the IC50 (FGFR1) was 150 nM, the IC50 (EGFR) was 7.01 µM and the IC50 (PDGFR) was 2370 nM. For the same compound, the IC50 (FGFR3) was 550 nM.
`CCN(CC)CCNC(=O)c1c(C)[nH]c(/C=C2\C(=O)Nc3cccc(-c4cccc(Br)c4)c32)c1C` [Example 63, 5-[4-(3-Bromo-phenyl)-2-oxo-1,2-dihydro-indol-3-ylidenemethyl]-2,4-dimethyl-1H-pyrrole-3-carboxylic Acid (2-Diethylamino-ethyl)-amide] was tested, and the IC50 (FGFR1) was 240 nM, the IC50 (EGFR) was 15 µM and the IC50 (PDGFR) was 2180 nM. For the same compound, the IC50 (FGFR3) was 94 nM.
